From ChEMBL document CHEMBL1128920, “Tetrahydrothienopyridine derivatives as novel GPIIb/IIIa antagonists” (Bioorg Med Chem Lett, 1996)
“And” between values parts separate entries of the source, which are not always exact repeats. Equal entries are not always repeated.

Tests used:
[1] = species on record: Homo sapiens; assay: Inhibitory activity against ADP-mediated human platelet aggregation in human platelet rich plasma; format: functional
[2] = target: T1, Integrin alpha-IIb/beta-3 (Homo sapiens, UniProt P05106+P08514); assay: Inhibition of biotinylated fibrinogen binding to alphaIIb-beta3 integrin; format: protein-complex assay
T1 sequence (P05106 27-788 limits assumed): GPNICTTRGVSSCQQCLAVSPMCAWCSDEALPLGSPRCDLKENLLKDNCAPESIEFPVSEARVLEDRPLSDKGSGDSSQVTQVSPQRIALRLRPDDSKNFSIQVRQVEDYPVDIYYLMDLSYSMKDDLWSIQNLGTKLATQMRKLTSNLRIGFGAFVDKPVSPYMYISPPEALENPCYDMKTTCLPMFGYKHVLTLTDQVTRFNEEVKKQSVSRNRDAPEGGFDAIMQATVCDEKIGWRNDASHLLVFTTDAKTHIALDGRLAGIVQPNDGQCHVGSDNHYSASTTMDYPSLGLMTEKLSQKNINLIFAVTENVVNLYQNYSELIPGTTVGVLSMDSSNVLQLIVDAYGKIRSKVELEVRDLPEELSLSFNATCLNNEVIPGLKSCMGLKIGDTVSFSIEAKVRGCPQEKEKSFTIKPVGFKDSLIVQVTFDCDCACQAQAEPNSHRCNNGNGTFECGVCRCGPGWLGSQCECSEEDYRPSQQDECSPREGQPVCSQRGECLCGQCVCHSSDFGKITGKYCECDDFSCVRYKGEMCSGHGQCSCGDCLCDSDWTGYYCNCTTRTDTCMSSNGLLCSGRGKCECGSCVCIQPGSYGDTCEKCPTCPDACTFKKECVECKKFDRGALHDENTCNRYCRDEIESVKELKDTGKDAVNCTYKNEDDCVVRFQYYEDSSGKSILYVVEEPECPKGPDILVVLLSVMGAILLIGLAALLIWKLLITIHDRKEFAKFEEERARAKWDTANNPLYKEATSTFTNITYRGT
T1 sequence (P08514 32-887 limits assumed): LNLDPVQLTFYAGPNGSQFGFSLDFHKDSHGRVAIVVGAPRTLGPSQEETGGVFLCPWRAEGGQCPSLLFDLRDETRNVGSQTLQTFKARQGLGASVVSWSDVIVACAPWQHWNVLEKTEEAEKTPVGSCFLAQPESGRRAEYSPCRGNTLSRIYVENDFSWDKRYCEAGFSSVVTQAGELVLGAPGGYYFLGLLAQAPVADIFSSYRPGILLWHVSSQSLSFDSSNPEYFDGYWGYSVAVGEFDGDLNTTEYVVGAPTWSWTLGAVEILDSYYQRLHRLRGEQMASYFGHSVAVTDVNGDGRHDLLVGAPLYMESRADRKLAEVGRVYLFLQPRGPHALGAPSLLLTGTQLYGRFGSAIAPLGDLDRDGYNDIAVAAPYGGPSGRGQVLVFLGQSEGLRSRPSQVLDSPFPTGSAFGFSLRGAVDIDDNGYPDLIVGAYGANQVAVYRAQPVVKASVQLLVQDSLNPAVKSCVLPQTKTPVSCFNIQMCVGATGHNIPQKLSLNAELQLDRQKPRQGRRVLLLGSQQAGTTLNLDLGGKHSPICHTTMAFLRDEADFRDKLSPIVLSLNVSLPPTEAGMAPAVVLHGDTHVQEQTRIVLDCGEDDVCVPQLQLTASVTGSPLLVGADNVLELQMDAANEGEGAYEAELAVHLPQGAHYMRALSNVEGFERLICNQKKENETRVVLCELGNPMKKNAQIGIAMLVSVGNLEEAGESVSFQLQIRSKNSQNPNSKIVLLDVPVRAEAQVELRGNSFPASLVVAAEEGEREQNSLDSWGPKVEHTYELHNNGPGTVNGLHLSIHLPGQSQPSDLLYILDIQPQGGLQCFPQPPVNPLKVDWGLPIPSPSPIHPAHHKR
T1 sequence (P08514 891-1039 limits assumed): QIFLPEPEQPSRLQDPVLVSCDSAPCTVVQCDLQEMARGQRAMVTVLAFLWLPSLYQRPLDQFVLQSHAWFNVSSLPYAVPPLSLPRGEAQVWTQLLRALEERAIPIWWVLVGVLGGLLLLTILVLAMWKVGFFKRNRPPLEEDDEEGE

[3] = target: T1, Integrin alpha-IIb/beta-3; assay: Biotinylated fibrinogen binding to alpha IIb beta-3 integrin; format: protein-complex assay
[4] = target: T1, Integrin alpha-IIb/beta-3; assay: Inhibition of vWF binding to GPIIb/IIIIa receptor; format: protein-complex assay
[5] = Inhibition of fibronectin binding to GPIIb/IIIIa fibronectin receptor
[6] = target: T1, Integrin alpha-IIb/beta-3; assay: Inhibition of Vitronectin binding to GPIIb/IIIIa Vitronectin receptor; format: protein-complex assay
[7] = target: T1, Integrin alpha-IIb/beta-3; assay: Inhibition of vWF binding to alphaIIb-beta3 integrin; format: protein-complex assay

IC50 [1] [nM] | IC50 [3] | Structure (SMILES) | also measured
9000 | – | O=C(O)COc1ccc(C(=O)CNC(=O)CCCC2CCNCC2)cc1OCC(=O)O | IC50 [2]: > 100 nM
470 | 9.8 nM | O=C(O)COc1cnc(C(=O)CNC(=O)c2cc3c(s2)CCNC3)cc1OCC(=O)O | –
> 10000 | 62 nM | O=C(O)COc1ccc(C(=O)CNC(=O)c2sc3c(c2Cc2ccccc2)CNCC3)cc1OCC(=O)O | –
87000 | – | NC(N)=NCCC[C@H](N)C(=O)NCC(=O)N[C@@H](CC(=O)O)C(=O)O | IC50 [4]: 4000 nM; IC50 [5]: 510 nM; IC50 [6]: 1400 nM; IC50 [2]: 76 nM
1600 | – | O=C(O)COc1ccc(C(=O)CNC(=O)c2cc3c(s2)CNC3)cc1OCC(=O)O | IC50 [2]: > 100 nM
150 | 6 nM | O=C(O)COc1ccc(C(=O)CNC(=O)c2cc3c(s2)CCNCC3)cc1OCC(=O)O | –
160 | 4.7 nM and 5.6 nM | O=C(O)COc1ccc(C(=O)CNC(=O)c2cc3c(s2)CCNC3)cc1OCC(=O)O | IC50 [5]: > 100000 nM; IC50 [7]: 28 nM; IC50 [6]: > 100000 nM
1900 | 8.7 nM | O=C(O)COc1ccc(C(=O)CNC(=O)c2cc3c(s2)CCCNC3)cc1OCC(=O)O | –
1200 | 31 nM | O=C(O)COc1ccc(C(=O)CNC(=O)c2cc3c(s2)CCNC3)cc1 | –
> 10000 | > 1000 nM | O=C(O)COc1cc(OCC(=O)O)cc(C(=O)CNC(=O)c2cc3c(s2)CCNC3)c1 | –
1500 | > 100 nM | O=C(O)COc1ccc(C(=O)CNC(=O)c2cc3c(s2)CCNC3)c(OCC(=O)O)c1 | –
720 | 100 nM | O=C(O)COc1ccc(C(=O)CNC(=O)c2cc3c(s2)CCNC3)nc1 | –
230 | 1.4 nM | O=C(O)COc1ccc(C(=O)CNC(=O)c2cc3c(s2)CNCC3)cc1OCC(=O)O | –
2500 | 18 nM | Cc1c(C(=O)NCC(=O)c2ccc(OCC(=O)O)c(OCC(=O)O)c2)sc2c1CNCC2 | –
9800 | > 1000 nM | O=C(O)COc1ccc(C(=O)CNC(=O)C2CCNCC2)cc1OCC(=O)O | –
350 | 42 nM | O=C(O)COc1ccc(C(=O)CNC(=O)CCC2CCNCC2)cc1OCC(=O)O | –
4300 | – | NCC1CCC(C(=O)NCC(=O)c2ccc(OCC(=O)O)c(OCC(=O)O)c2)CC1 (centres undefined) | IC50 [2]: 730 nM
10000 | > 100 nM | O=C(O)COc1ccc(C(=O)CNC(=O)CC2CCNCC2)cc1OCC(=O)O | –
> 10000 | 80 nM | O=C(O)CCc1ccc(C(=O)CNC(=O)c2cc3c(s2)CCNC3)cc1 | –
